Blank lines part the entries; values can stand above or below the compound they belong to.
How the values were obtained:
Assay type in all cases: biochemical
[1] = target: T1, PFKL (K315R, V545L, and V582M), PFKL3Mut (Homo sapiens, UniProt P17858, K315R/V545L/V582M); assay: Recombinant PFKL3Mut activity assay; settings: for activation of PFKL3Mut: 3.1 mM ATP, 1.5 mM F6P
T1 construct: made in house; host or cells: Sf9 insect cells (baculovirus)
T1 sequence (P17858 1-780 K315R/V545L/V582M): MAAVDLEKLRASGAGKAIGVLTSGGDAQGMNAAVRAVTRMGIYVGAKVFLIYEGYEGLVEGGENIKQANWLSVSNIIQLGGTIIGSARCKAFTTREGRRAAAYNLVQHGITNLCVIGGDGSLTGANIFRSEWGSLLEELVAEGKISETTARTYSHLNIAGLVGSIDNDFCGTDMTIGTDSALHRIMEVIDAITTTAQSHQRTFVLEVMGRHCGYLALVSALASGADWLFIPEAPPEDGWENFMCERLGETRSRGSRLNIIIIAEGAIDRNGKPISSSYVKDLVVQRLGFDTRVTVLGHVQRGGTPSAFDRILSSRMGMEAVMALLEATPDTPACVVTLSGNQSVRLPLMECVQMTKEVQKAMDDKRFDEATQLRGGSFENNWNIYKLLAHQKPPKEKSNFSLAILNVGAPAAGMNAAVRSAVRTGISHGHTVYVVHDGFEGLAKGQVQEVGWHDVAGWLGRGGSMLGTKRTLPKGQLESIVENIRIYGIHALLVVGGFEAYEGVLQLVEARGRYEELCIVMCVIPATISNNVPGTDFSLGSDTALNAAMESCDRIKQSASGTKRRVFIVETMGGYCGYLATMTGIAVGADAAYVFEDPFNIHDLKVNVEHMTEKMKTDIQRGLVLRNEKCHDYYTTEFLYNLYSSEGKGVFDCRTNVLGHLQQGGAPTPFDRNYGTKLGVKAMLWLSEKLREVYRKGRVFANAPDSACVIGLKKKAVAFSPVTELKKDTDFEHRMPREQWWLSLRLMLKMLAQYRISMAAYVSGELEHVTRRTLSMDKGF
Text: (§1) Recombinant N-terminal His-tagged human PFKL (NP_002617), PFKM (NP_000280), and PFKP (NM_002627.4) were generated as described ([Webb et al., 2015], [2017]). Point mutants of PFK1 were generated using the QuikChange Lightning kit (Aligent).
(§2) His-tagged PFK1 was expressed and purified as described with slight modifications ([Webb et al., 2015], [2017]). Briefly, baculovirus was generated using the Bac-to-Bac Expression system (Invitrogen). PFK1 was expressed in 2-5 × 10^6 sf9 cells at a multiplicity of infection of two for 48 h. Cells were lysed in 20 mM HEPES, pH 7.5, 80 mM potassium phosphate, 1 mM 2-mercapentoethanol, 10% glycerol, 10 mM imidazole, and EDTA-free Protease Inhibitor Cocktail (Abcam) with a Dounce homogenizer. The soluble lysate was incubated with HisPur cobalt resin (ThermoFisher Scientific). The resin was washed with 5 bead volumes lysis buffer, 10 bead volumes lysis buffer containing 2 M NaCl, and 5 further bead volumes lysis buffer. PFK1 was eluted in lysis buffer containing 100 mM imidazole. Fractions containing protein were pooled, passed over a desalting column equilibrated in freezing buffer [20 mM HEPES pH 7.5, 1 mM DTT, 500 μM ammonium sulfate, 5% glycerol, 1 mM ATP, and 100 μM EDTA] and concentrated using an Amicon Ultracel-30K Centrifugal Filter Unit (MilliporeSigma). Protein was quantified using a Bradford Protein Assay kit (ThermoFisher Scientific), and aliquotes frozen in liquid nitrogen for storage at −80°C.
(§3) PFK1 activity was determined using the rate of FBP production via an auxiliary enzyme assay adapted to a 96-well format ([Brüser et al., 2012]; [Webb et al., 2015]). The auxiliary enzymes aldolase, triosephosphate isomerase, and glycerol phosphate dehydrogenase were purchased from MilliporeSigma as ammonium sulfate slurries and desalted using an Amicon Ultracel-10K Centrifugal Filter Unit. For assays containing FBP, the rate of ADP production was determined using the auxiliary enzymes pyruvate kinase (PK) and lactate dehydrogenase (LDH) (MilliporeSigma) in a buffer containing 250 μM phosphoenolpyruvic acid, […] NADH, 50 mM HEPES pH 7.5, 100 mM KCl, 1 mM DTT, and effector concentrations as described in the text. The temperature was equilibrated to 25°C for 5 min before initiating the reaction 10 mM MgCl2. Absorbance at 340 nm was measured using a Varioskan LUX Multimode microplate reader (ThermoFisher). Kinetic parameters were generated by nonlinear regression analysis using Prism (GraphPad Software) and are the mean of a minimum of three measurements from two independent preparations of protein. One unit of activity was defined as the amount of enzyme that catalyzed the formation of 1 μmol of fructose 1,6-bisphosphate per min at 25°C. Assays for PFKM were performed at pH 7.0 due to the pH-dependence of ATP inhibition ([Trivedi and Danforth, 1966]).

[2] = target: T2, PFKM+pocket (R315 to lysine) (Homo sapiens, UniProt P08237, R315K); assay: Recombinant PFKM+pocket activity assay
T2 construct: made in house; host or cells: Sf9 insect cells (baculovirus)
T2 sequence (P08237 1-780 R315K): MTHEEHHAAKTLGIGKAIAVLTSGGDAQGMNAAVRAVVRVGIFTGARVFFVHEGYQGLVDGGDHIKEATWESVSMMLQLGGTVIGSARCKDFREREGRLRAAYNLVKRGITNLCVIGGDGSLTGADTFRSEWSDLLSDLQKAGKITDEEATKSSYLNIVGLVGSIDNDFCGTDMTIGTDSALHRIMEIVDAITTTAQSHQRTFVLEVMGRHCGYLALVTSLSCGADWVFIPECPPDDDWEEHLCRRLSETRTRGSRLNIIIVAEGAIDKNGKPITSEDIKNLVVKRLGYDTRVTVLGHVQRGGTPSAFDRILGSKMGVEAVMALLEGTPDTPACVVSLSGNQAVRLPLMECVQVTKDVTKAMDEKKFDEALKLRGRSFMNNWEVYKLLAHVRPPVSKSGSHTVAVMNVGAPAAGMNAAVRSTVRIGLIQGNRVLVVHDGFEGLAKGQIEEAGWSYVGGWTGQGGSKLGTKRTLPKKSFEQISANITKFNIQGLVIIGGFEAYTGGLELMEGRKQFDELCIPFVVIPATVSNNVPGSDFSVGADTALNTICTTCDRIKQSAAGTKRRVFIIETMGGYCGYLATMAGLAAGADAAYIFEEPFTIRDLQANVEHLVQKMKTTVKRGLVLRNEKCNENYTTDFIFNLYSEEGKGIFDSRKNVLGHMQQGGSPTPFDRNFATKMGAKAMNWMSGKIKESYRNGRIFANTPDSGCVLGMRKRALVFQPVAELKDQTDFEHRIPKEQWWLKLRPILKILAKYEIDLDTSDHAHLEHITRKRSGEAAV
Text: as §1, §2
as §3, with “Assays for PFKM were performed at pH 7.0 due to the pH-dependence of ATP inhibition ([Trivedi and Danforth, 1966]).” left out

[3] = target: T3, human PFKP (Homo sapiens, UniProt Q01813); assay: Recombinant PFKP activity assay; settings: at concentrations up to 100 μM
T3 construct: made in house; host or cells: Sf9 insect cells (baculovirus)
Text: as §1
His-tagged PFK1 was expressed and purified as described with slight modifications ([Webb et al., 2015], [2017]). Briefly, baculovirus was generated using the Bac-to-Bac Expression system (Invitrogen). PFK1 was expressed in 2-5 × 10^6 sf9 cells at a multiplicity of infection of two for 48 h. […] Protein was quantified using a Bradford Protein Assay kit (ThermoFisher Scientific), and aliquotes frozen in liquid nitrogen for storage at −80°C.
PFK1 activity was determined using the rate of FBP production via an auxiliary enzyme assay adapted to a 96-well format ([Brüser et al., 2012]; [Webb et al., 2015]). […] For assays containing FBP, the rate of ADP production was determined using the auxiliary enzymes pyruvate kinase (PK) and lactate dehydrogenase (LDH) (MilliporeSigma) in a buffer containing 250 μM phosphoenolpyruvic acid, […] NADH, 50 mM HEPES pH 7.5, 100 mM KCl, 1 mM DTT, and effector concentrations as described in the text. […] Absorbance at 340 nm was measured using a Varioskan LUX Multimode microplate reader (ThermoFisher). […]

[4] = PFKM+pocket, pH 7.0, 250 μM ATP

T3 sequence (Q01813 whole entry): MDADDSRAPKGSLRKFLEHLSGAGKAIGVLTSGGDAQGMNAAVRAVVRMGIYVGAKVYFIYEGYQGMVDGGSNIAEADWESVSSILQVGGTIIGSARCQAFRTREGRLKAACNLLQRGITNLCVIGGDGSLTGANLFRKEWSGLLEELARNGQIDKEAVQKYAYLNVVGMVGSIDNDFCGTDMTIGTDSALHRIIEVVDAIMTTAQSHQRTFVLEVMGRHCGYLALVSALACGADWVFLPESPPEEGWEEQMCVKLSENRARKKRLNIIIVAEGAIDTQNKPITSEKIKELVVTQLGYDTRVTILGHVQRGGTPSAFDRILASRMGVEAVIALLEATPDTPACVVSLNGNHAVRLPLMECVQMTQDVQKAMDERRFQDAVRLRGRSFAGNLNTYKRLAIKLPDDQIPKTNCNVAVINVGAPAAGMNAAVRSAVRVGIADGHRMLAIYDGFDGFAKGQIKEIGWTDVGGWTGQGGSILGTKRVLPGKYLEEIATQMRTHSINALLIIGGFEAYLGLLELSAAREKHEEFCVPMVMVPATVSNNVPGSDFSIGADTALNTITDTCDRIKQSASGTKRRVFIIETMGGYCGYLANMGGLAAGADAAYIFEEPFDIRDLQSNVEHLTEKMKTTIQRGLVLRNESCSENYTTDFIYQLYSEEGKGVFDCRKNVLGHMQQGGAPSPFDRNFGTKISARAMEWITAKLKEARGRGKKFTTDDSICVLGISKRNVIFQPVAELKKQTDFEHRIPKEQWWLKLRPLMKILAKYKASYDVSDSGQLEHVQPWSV

hF6P (Hill coefficient) ([1]; PFKL3Mut, pH 7.5, 225 μM ATP): 3.07 ± 0.87 | hF6P (Hill coefficient) [2, 4]: 3.64 ± 0.69
SMILES: O=C(CO)[C@@H](O)[C@H](O)[C@H](O)COP(=O)(O)O [F6P, fructose 6-phosphate]
Vmax,F6P ([1]; PFKL3Mut, pH 7.5, 225 μM ATP): 17.36 ± 0.87 micromoles FBP per minute per milligram PFK1 | Vmax,F6P [2, 4]: 17.29 ± 0.93 micromoles FBP per minute per milligram PFK1

activation of PFKP [3]: failed to activate
SMILES: COc1ccccc1-c1cc2n(n1)Cc1ccc(NC(C)=O)cc1OC2 [LDC7559, reference compound]

EC50 ([2]; pH 7.0, 4.0 mM ATP, 1.0 mM F6P, mean ± SEM, read-out: EC50, activation of PFKM+pocket): 10.9 ± 1.28 nM
SMILES: CC(=O)Nc1ccc2c(c1)OCc1cc(-c3ccccc3)nn1C2 [NA-5]

SMILES: CC(=O)Nc1ccc2c(c1)OCc1cc(-c3ccccc3C#CCCCO)nn1C2 [NA-11]
activation of PFKL3Mut ([1]; at 200 nM): no activation observed | activation of PFKL3Mut ([1]; at 1 μM): only partial activation observed | activation of PFKP [3]: failed to activate

— article PMC8802628, “Selective activation of PFKL suppresses the phagocytic oxidative burst” (Cell, 2021)
